Data: ChEMBL document CHEMBL4619722, “Alanine scan-guided synthesis and biological evaluation of analogues of culicinin D, a potent anticancer peptaibol” (Bioorg Med Chem Lett, 2020)
pIC50: −log10 of the molar value. Numbered stars: 1 amine (or outer) side, 2 acyl side, 3 side chain; on linkers, the order of the positions; unused ones are H or OH. Square brackets hold non-standard residues; d marks the D form. Peptide text beside a SMILES is read from it. * marks the point of attachment. ξ: configuration not given here. X1 = CCC(=O)C[C@H](O)C[C@@H](C)C[C@H](N[*:1])C(=O)[*:2]; Nva(5-pentanoyl) = CCCCC(=O)CCC[C@H](N)C(=O)O; NH((S)CH(Me)CH2NHC2H4OH) = C[C@@H](CNCCO)N*; Gly(octyl) = CCCCCCCC[C@H](N)C(=O)O; X2 = O=C([C@H](CCCCO)N[*:1])[*:2]; X3 = C[C@H](NC[C@H](C)N*)C(=O)O; Nle = CCCC[C@H](N)C(=O)O; Nva = CCC[C@H](N)C(=O)O; Aib = CC(C)(N)C(=O)O; Butyryl = CCCC(=O)*; ξP = O=C(O)C1CCCN1; βAla = NCCC(=O)O

Experiments:
Format in all cases: functional, cell-based
MDA-MB-468 = test: Antiproliferative activity against human MDA-MB-468 cells
SK-BR-3 = test: Antiproliferative activity against human SKBR3 cells
T47D = test: Antiproliferative activity against human T47D cells
NCI-H460 = test: Antiproliferative activity against human NCI-H460 cells

Row | Compound | pIC50 (MDA-MB-468) | pIC50 (SK-BR-3) | pIC50 (T47D) | pIC50 (NCI-H460)
1 | CCCCCCCC[C@H](NC(=O)C(C)(C)NC(=O)C(C)(C)NC(=O)[C@H](C[C@H](C)C[C@@H](O)CC(=O)CC)NC(=O)[C@@H]1CCCN1C(=O)CCC)C(=O)N[C@@H](CC(C)C)C(=O)NC(C)(C)C(=O)N[C@@H](CC(C)C)C(=O)NCCC(=O)N[C@@H](C)CNCCO (Butyryl-P[X1][Aib][Aib][Gly(octyl)]L[Aib]L[βAla]-{NH((S)CH(Me)CH2NHC2H4OH)}) | 8.40 | 7.60 | 8.52 | 8.10
2 | CCCC[C@H](NC(=O)C(C)(C)NC(=O)C(C)(C)NC(=O)[C@H](C[C@H](C)C[C@@H](O)CC(=O)CC)NC(=O)[C@@H]1CCCN1C(=O)CCC)C(=O)N[C@@H](CC(C)C)C(=O)NC(C)(C)C(=O)N[C@@H](CC(C)C)C(=O)NCCC(=O)N[C@@H](C)CNCCO (Butyryl-P[X1][Aib][Aib][Nle]L[Aib]L[βAla]-{NH((S)CH(Me)CH2NHC2H4OH)}) | 7.05 | < 6.00 | 6.91 | < 6.30
3 | CCCC(=O)N1CCC[C@H]1C(=O)N[C@@H](C[C@H](C)C[C@@H](O)CC(=O)CC)C(=O)NC(C)(C)C(=O)NC(C)(C)C(=O)N[C@@H](CCC)C(=O)N[C@@H](CC(C)C)C(=O)NC(C)(C)C(=O)N[C@@H](CC(C)C)C(=O)NCCC(=O)N[C@@H](C)CNCCO (Butyryl-P[X1][Aib][Aib][Nva]L[Aib]L[βAla]-{NH((S)CH(Me)CH2NHC2H4OH)}) | 6.56 | < 6.00 | 6.38 | < 6.00
4 | CCCCCCCC[C@H](NC(=O)C(C)(C)NC(=O)C(C)(C)NC(=O)[C@H](CCCCO)NC(=O)[C@@H]1CCCN1C(=O)CCC)C(=O)N[C@@H](CC(C)C)C(=O)NC(C)(C)C(=O)N[C@@H](CC(C)C)C(=O)NCCC(=O)N[C@@H](C)CNCCO (Butyryl-P[X2][Aib][Aib][Gly(octyl)]L[Aib]L[βAla]-{NH((S)CH(Me)CH2NHC2H4OH)}) | 7.41 | 6.57 | 7.31 | 7.35
5 | CCCCCCCC[C@H](NC(=O)C(C)(C)NC(=O)C(C)(C)NC(=O)[C@H](C)NC(=O)C1CCCN1C(=O)CCC)C(=O)N[C@@H](CC(C)C)C(=O)NC(C)(C)C(=O)N[C@@H](CC(C)C)C(=O)NCCC(=O)N[C@@H](C)CNCCO (stereo partly drawn) (Butyryl-[ξP]A[Aib][Aib][Gly(octyl)]L[Aib]L[βAla]-{NH((S)CH(Me)CH2NHC2H4OH)}) | 7.17 | 6.46 | 7.21 | 7.15
6 | CCCCCCCC[C@H](NC(=O)C(C)(C)NC(=O)[C@H](C)NC(=O)[C@H](CCCC(=O)CCCC)NC(=O)C1CCCN1C(=O)CCC)C(=O)N[C@@H](CC(C)C)C(=O)NC(C)(C)C(=O)N[C@@H](CC(C)C)C(=O)NCCC(=O)N[C@@H](C)CNCCO (stereo partly drawn) (Butyryl-[ξP][Nva(5-pentanoyl)]A[Aib][Gly(octyl)]L[Aib]L[βAla]-{NH((S)CH(Me)CH2NHC2H4OH)}) | 7.38 | 7.12 | 7.51 | 7.36
7 | CCCCCCCC[C@H](NC(=O)[C@H](C)NC(=O)C(C)(C)NC(=O)[C@H](CCCC(=O)CCCC)NC(=O)C1CCCN1C(=O)CCC)C(=O)N[C@@H](CC(C)C)C(=O)NC(C)(C)C(=O)N[C@@H](CC(C)C)C(=O)NCCC(=O)N[C@@H](C)CNCCO (stereo partly drawn) (Butyryl-[ξP][Nva(5-pentanoyl)][Aib]A[Gly(octyl)]L[Aib]L[βAla]-{NH((S)CH(Me)CH2NHC2H4OH)}) | 7.68 | 7.62 | 7.57 | 7.70
8 | CCCCC(=O)CCC[C@H](NC(=O)C1CCCN1C(=O)CCC)C(=O)NC(C)(C)C(=O)NC(C)(C)C(=O)N[C@@H](C)C(=O)N[C@@H](CC(C)C)C(=O)NC(C)(C)C(=O)N[C@@H](CC(C)C)C(=O)NCCC(=O)N[C@@H](C)CNCCO (stereo partly drawn) (Butyryl-[ξP][Nva(5-pentanoyl)][Aib][Aib]AL[Aib]L[βAla]-{NH((S)CH(Me)CH2NHC2H4OH)}) | < 6.00 | < 6.00 | < 6.00 | < 6.00
9 | CCCCCCCC[C@H](NC(=O)C(C)(C)NC(=O)C(C)(C)NC(=O)[C@H](CCCC(=O)CCCC)NC(=O)C1CCCN1C(=O)CCC)C(=O)N[C@@H](C)C(=O)NC(C)(C)C(=O)N[C@@H](CC(C)C)C(=O)NCCC(=O)N[C@@H](C)CNCCO (stereo partly drawn) (Butyryl-[ξP][Nva(5-pentanoyl)][Aib][Aib][Gly(octyl)]A[Aib]L[βAla]-{NH((S)CH(Me)CH2NHC2H4OH)}) | 7.18 | 6.89 | 7.29 | 6.99
10 | CCCCCCCC[C@H](NC(=O)C(C)(C)NC(=O)C(C)(C)NC(=O)[C@H](CCCC(=O)CCCC)NC(=O)C1CCCN1C(=O)CCC)C(=O)N[C@@H](CC(C)C)C(=O)N[C@@H](C)C(=O)N[C@@H](C)C(=O)NCCC(=O)N[C@@H](C)CNCCO (stereo partly drawn) (Butyryl-[ξP][Nva(5-pentanoyl)][Aib][Aib][Gly(octyl)]LAA[βAla]-{NH((S)CH(Me)CH2NHC2H4OH)}) | 6.50 | < 6.00 | 7.00 | 7.02
11 | CCCCCCCC[C@H](NC(=O)C(C)(C)NC(=O)C(C)(C)NC(=O)[C@H](CCCC(=O)CCCC)NC(=O)C1CCCN1C(=O)CCC)C(=O)N[C@@H](CC(C)C)C(=O)N[C@@H](C)C(=O)N[C@@H](CC(C)C)C(=O)NCCC(=O)N[C@@H](C)CNCCO (stereo partly drawn) (Butyryl-[ξP][Nva(5-pentanoyl)][Aib][Aib][Gly(octyl)]LAL[βAla]-{NH((S)CH(Me)CH2NHC2H4OH)}) | < 6.00 | < 6.00 | < 6.00 | 6.58
12 | CCCCCCCC[C@H](NC(=O)C(C)(C)NC(=O)C(C)(C)NC(=O)[C@H](CCCC(=O)CCCC)NC(=O)C1CCCN1C(=O)CCC)C(=O)N[C@@H](CC(C)C)C(=O)NC(C)(C)C(=O)N[C@@H](CC(C)C)C(=O)N[C@@H](C)C(=O)N[C@@H](C)CNCCO (stereo partly drawn) (Butyryl-[ξP][Nva(5-pentanoyl)][Aib][Aib][Gly(octyl)]L[Aib]LA-{NH((S)CH(Me)CH2NHC2H4OH)}) | 7.59 | 7.44 | 7.68 | 7.80
13 | CCCCCCCC[C@H](NC(=O)C(C)(C)NC(=O)C(C)(C)NC(=O)[C@H](CCCC(=O)CCCC)NC(=O)C1CCCN1C(=O)CCC)C(=O)N[C@@H](CC(C)C)C(=O)NC(C)(C)C(=O)N[C@@H](CC(C)C)C(=O)NCCC(=O)N[C@@H](C)CN[C@@H](C)C(=O)O (stereo not given in full) (Butyryl-[ξP][Nva(5-pentanoyl)][Aib][Aib][Gly(octyl)]L[Aib]L[βAla]-X3) | < 6.30 | < 6.00 | < 6.30 | 6.54
14 | CCCCCCCC[C@H](NC(=O)C(C)(C)NC(=O)C(C)(C)NC(=O)[C@H](CCCC(=O)CCCC)NC(=O)C1CCCN1C(=O)CCC)C(=O)N[C@@H](CC(C)C)C(=O)NC(C)(C)C(=O)N[C@@H](CC(C)C)C(=O)NCCC(=O)N[C@@H](C)CNCCO (stereo partly drawn) (Butyryl-[ξP][Nva(5-pentanoyl)][Aib][Aib][Gly(octyl)]L[Aib]L[βAla]-{NH((S)CH(Me)CH2NHC2H4OH)}) | 7.70 | 7.33 | 7.96 | 7.74
15 | CCCCCCCC[C@H](NC(=O)C(C)(C)NC(=O)C(C)(C)NC(=O)[C@H](CCCC(=O)CCCC)NC(=O)[C@H](C)N)C(=O)N[C@@H](CC(C)C)C(=O)NC(C)(C)C(=O)N[C@@H](CC(C)C)C(=O)NCCC(=O)N[C@@H](C)CNCCO (H-A[Nva(5-pentanoyl)][Aib][Aib][Gly(octyl)]L[Aib]L[βAla]-{NH((S)CH(Me)CH2NHC2H4OH)}) | 8.15 | 7.74 | 8.22 | 8.30
